Assay results reported in article PMC6328587 (Nature Communications, 2019).
Like-named read-outs stand apart in the source and are kept apart here.

Columns and labels:
p38γ = biological target: T1, p38γ (Homo sapiens, UniProt P53778); assay: p38γ degradation, western blot in MDA-MB-231 cells; assay type: cell-based; conditions: concentrations up to 2.5 µM
T1 construct: endogenous in cells; host or cells: MDA-MB-231
T1 sequence (P53778 1-367): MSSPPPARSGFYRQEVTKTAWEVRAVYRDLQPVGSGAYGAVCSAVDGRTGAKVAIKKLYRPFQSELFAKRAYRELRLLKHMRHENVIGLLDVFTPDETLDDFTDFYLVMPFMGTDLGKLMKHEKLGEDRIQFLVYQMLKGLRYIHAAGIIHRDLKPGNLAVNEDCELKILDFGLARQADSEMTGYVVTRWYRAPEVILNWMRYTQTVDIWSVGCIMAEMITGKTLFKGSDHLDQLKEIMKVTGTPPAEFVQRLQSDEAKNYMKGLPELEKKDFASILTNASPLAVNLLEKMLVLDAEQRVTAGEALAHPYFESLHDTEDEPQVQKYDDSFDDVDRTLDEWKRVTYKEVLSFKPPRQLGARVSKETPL
Method: (§1) […] once with ice-cold PBS (1 × ), followed by lysis in buffer containing 25 mM Tris [pH 7.5], 0.25% sodium deoxycholate, 1% Triton X-100, supplemented with 1X protease inhibitor cocktail (Roche), and phosphatase inhibitors (10 mM NaF, 1 mM Na3VO4, and 20 mM β-glycerophosphate), unless otherwise noted. Lysates were spun at 14,000 × g for 10 min at 4 °C and supernatant was evaluated for protein content using a Pierce BCA Protein Assay (ThermoFisher Scientific). In all experiments, 25–50 μg of protein was loaded onto 10% SDS-PAGE gels or 4–20% Criterion TGX precast gradient gels (Bio-Rad), transferred to nitrocellulose membranes, and probed with the specified antibodies overnight at 4 °C in 1X TBS-Tween (Tris-buffered saline plus 0.02% Tween 20) containing 5% non-fat milk. Immunoblots were visualized using a Bio-Rad ChemiDoc imaging instrument and subsequently processed and quantified using the accompanying Bio-Rad ImageLab software. See Supplementary Figure 8 for uncropped scans of western blots shown in the main text figures.
(§2) Supplementary Figure 4 cont.
(§3) Supplementary Figure 4. Characterization of M APK fam ily degradation selectivity (related to Figures 1-2). (a) p38 M APK fam ily m em bers (α, β, δ, γ) were aligned using the T-Coffee multiple sequence alignm ent server. […] Note: JNK1 and JNK2 are expressed as two alternatively-spliced form s. […]

p38α = biological target: T2, p38α (Homo sapiens, UniProt Q16539); assay: PROTAC-induced p38α degradation, western blot in MDA-MB-231 cells; assay type: cell-based
T2 construct: SJFα PROTAC (13-atom linker, amide attachment) selectively degrades p38α; endogenous in cells; host or cells: MDA-MB-231
T2 sequence (Q16539 whole entry): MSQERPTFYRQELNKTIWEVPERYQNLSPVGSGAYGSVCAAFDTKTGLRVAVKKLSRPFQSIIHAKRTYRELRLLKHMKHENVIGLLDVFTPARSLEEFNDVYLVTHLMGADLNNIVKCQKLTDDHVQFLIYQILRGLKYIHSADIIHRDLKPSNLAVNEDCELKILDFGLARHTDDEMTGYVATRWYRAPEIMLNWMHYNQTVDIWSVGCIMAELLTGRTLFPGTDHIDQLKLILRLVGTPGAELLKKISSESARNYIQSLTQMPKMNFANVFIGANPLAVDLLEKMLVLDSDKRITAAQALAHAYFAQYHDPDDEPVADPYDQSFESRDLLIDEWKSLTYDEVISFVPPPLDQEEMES
Method: MDA-MB-231 and HeLa cells were obtained from the American Type Culture Collection (ATCC), cultured in RPMI-1640 medium (1 × ) and Dulbecco’s modified Eagle’s medium (DMEM; 1 × ), respectively, containing 10% fetal bovine serum and 1% penicillin–streptomycin and grown in a humidified incubator at 37 °C and 5% CO2.
as §1
Western blot data in Figs. 2, 6, and Supplementary Figures 2, 3 were quantified by using the band feature in Image Lab (Bio-Rad). The p38 values were normalized to the α-tubulin signal to account for differences in protein load, and PROTAC-treated normalized values were expressed as a % of the vehicle-treated (no PROTAC) value, which itself was defined as 100% p38 protein level. […] The sigmoidal fit established both the full extent of degradation, or Dmax at the bottom asymptote of the curve, as well as the DC50, which is the inflection point at which 50% of the total degradation observed was reached.

endogenous p38δ = biological target: T3, endogenous p38δ (Homo sapiens, UniProt O15264+P40337); assay: Ternary complex pull-down from MDA-MB-231 whole-cell lysate; assay type: binding
T3 construct: endogenous in cells; host or cells: MDA-MB-231 whole-cell lysate (p38δ); GST-VBC bait made in E. coli
T3 sequence (O15264 whole entry): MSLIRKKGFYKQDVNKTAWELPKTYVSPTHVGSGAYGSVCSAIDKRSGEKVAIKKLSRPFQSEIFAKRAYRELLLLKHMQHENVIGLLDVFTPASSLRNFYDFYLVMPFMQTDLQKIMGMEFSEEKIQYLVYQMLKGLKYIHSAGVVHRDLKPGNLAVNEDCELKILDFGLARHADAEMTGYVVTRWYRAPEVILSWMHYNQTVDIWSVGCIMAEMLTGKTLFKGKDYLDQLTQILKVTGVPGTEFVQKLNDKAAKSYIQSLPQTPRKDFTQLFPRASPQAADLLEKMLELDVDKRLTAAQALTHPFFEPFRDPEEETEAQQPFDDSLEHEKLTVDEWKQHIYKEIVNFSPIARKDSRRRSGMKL
T3 sequence (P40337 whole entry): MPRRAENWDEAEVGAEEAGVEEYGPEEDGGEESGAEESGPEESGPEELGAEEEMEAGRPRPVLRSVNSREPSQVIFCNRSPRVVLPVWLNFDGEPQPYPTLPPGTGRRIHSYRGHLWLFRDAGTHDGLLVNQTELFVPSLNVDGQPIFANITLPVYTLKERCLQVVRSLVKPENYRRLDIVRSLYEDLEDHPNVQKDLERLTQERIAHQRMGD
T3 sequence (Q15370 whole entry partner): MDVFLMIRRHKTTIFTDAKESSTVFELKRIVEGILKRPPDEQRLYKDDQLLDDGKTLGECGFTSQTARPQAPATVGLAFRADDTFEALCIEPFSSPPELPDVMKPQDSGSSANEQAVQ
T3 sequence (Q15369 whole entry partner): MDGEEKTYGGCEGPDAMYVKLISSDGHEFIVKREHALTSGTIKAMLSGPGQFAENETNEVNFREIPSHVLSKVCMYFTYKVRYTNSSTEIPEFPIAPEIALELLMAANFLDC
Method: (§4) Glutathione Sepharose 4B (Glutathione-conjugated beads in a slurry containing 20% ethanol) were washed twice with 1X wash buffer (50 mM HEPES pH 7.5, 150 mM NaCl, 1 mM DTT, 0.01% NP40, 5 mM MgCl2, 10% Glycerol) and then blocked for 1 h at room temperature with 10% bovine serum albumin (BSA) in wash buffer. The beads were then washed again three times with wash buffer and then purified GST-VBC (stable form of VHL complexed with EloB/EloC, described above) was immobilized for 1 h at 4 °C at 3.6 pmole µL^–1 of beads. The beads were then washed three times with wash buffer, resuspended, divided into two equal volumes, and p38α or p38δ protein was added. The bead:p38 mixture was then aliquoted to separate tubes and PROTAC was added at the indicated concentration (PROTACs were intermediately diluted in 10% DMSO and 0.25% CHAPS). This mixture was incubated at 4 °C for 2 h. The beads were washed three times with 10 column volumes of wash buffer and then eluted with SDS loading buffer at 75 °C for 10 min.
For experiments in which the input substrate is a WCL (Fig. 4b), the sample was prepared as follows. Five 150 mm dishes of confluent MDA-MB-231 cells were washed with 1X PBS, pH 7.4, and then dissociated using enzyme-free PBS-based cell dissociation buffer (ThermoFisher Scientific) for 10 min at 37 °C. […]

[1] = biological target: T4, p38δ:PROTAC:VHL ternary complex (Homo sapiens, UniProt O15264+P40337); assay: In vitro ternary complex pull-down, GST-VBC bait, purified p38δ; assay type: binding; conditions: dose-dependent
T4 construct: encoding a region spanning amino acids 1–365; His6 (N); made in house; host or cells: E. coli BL21-CodonPlus(DE3)-RIPL (p38δ); E. coli BL21(DE3) (GST-VBC)
T4 sequence (O15264 whole entry, the tested form may be a part): as the sequence (O15264 whole entry) above
T4 sequence (P40337 whole entry, the tested form may be a part): as the sequence (P40337 whole entry) above
T4 sequence (Q15370 whole entry partner, the tested form may be a part): as the sequence (Q15370 whole entry partner) above
T4 sequence (Q15369 whole entry partner, the tested form may be a part): as the sequence (Q15369 whole entry partner) above
Method: as §4

JNK2 = JNK2 degradation, western blot in MDA-MB-231 cells; assay type: cell-based, human; conditions: 0.025-2.5 µM
Method: as §1, §2, §3

[2] = 0.025-5.0 µM survey, biological duplicates, ± one s.d., Supplementary Table 1
[3] = 0.025-5.0 µM survey, ± one s.d., Supplementary Table 1, read-out: Dmax p38α (maximum percentage of degradation)

Structure (SMILES)	p38γ degradation (p38γ)	p38α degradation (in words) (p38α)	DC50 (p38α; [2])	Dmax (p38α; [3])	enrichment of endogenous p38δ on GST-VBC bait (endogenous p38δ)	pull-down of purified p38δ on GST-VBC-coated beads [1]	JNK2 degradation (JNK2)	p38α downregulation after pre-treatment with 1 µM epoxomicin or 1 µM MLN4924 (p38α; 250 nM PROTAC, 6 h)	hook effect in p38α degradation (p38α; up to 100 µM)	DC50 (p38α; wider dose response 1 nM-100 µM, Supplementary Figure 3)	Dmax (p38α; wider dose response 1 nM-100 µM, Supplementary Figure 3, read-out: Dmax p38α)
COc1cc2c(Oc3ccc(NC(=O)C4(C(=O)Nc5ccc(F)cc5)CC4)cc3F)ccnc2cc1OCCOCCOCCOc1cc(-c2scnc2C)ccc1CNC(=O)[C@@H]1C[C@@H](O)CN1C(=O)[C@H](C(C)C)N1Cc2ccccc2C1=O [SJFδ]	does not degrade	does not degrade	45.9 ± 81.3 nM	34.5 ± 10.1%	strongly enriches for endogenous p38δ	can pull-down purified p38δ	neither PROTAC degrades				
COc1cc2c(Oc3ccc(NC(=O)C4(C(=O)Nc5ccc(F)cc5)CC4)cc3F)ccnc2cc1OCCCCOCCCCOCC(=O)N[C@H](C(=O)N1C[C@H](O)C[C@H]1C(=O)NCc1ccc(-c2scnc2C)cc1)C(C)(C)C [SJFα]	does not degrade		9.5 ± 1 nM	99.6 ± 1.1%	stable ternary complex formation was greatly reduced	can pull-down purified p38δ	neither PROTAC degrades	completely rescued	no hook effect	7.16 ± 1.03 nM	97.4%
